Measured values from US7414042B2, “Method and composition for selectively inhibiting melanoma” (The Board of Trustees of The University of Illinois, priority 1995, dated 2008).
Converted amounts (≈) assume the structure as drawn. “Also recorded” adds a separate entry of the source.

What was measured:
[1] = tested on: L1210 murine lymphocytic leukemia; conditions: 200 mg/kg; cited from earlier work
[2] = tested on: human melanoma cells (MEL-2); experiment: In vivo activity against unestablished MEL-2 tumors in athymic mice; parameters: species or system athymic (nude) mice
Experimental: To test the in vivo ability of betulinic acid to serve as an antineoplastic agent against malignant melanoma, a series of studies was performed with athymic (nude) mice injected subcutaneously with human melanoma cells (MEL-2). The initial study investigated the activity of betulinic acid against unestablished tumors. Treatment with betulinic acid began on day 1, i.e., 24 hours, following tumor cell injection. […] Such a discovery is important for individuals who are predisposed to melanoma due to hereditary or environmental factors.
In particular, the data plotted in FIG. 1 was derived from experiments wherein four week old athymic mice were injected subcutaneously in the right flank with 3.0×10^8 UISO MEL-2 cells. UISO MEL-2 is a cell line derived from metastatic melanoma from human pleural fluid. Drug treatment was initiated on the day following tumor cell injection and continued every fourth day for a total of six doses. Four control animals received 0.5 ml intraperitoneal (IP) of PVP control solution, while treated animals (4 per group) received 50, 250 or 500 mg/kg/dose IP betulinic acid/PVP in deionized H2O. Betulinic acid was coprecipitated with PVP to increase solubility and bioavailability. The mice were weighed, and the tumors measured with a micrometer every other day throughout the study. […]

UISO MEL-1 cells = experiment: In vivo activity against MEL-1 tumors in athymic mice; conditions: 5, 50 or 250 mg/kg/dose IP betulinic acid/PVP every fourth day, six doses
Experimental: In particular, with respect to FIGS. 4 and 5, four week old athymic mice were injected subcutaneously in the right flank with 5.0×10^8 UISO MEL-1 cells. Drug treatment was initiated on the day following tumor cell injection and continued every fourth day for a total of six doses. Four control animals received 0.5 ml intraperitoneal (IP) saline, while treated animals (4 per group) received 5, 50 or 250 mg/kg/dose IP betulinic acid/PVP in dd H2O. The mice were weighed, and tumors were measured with a micrometer every third day throughout the study. Treated animals were sacrificed and autopsied on day 41, when the mean tumor volume in the control mice was approximately 0.5 cm^3. The control mice then received six doses of 50 mg/kg every fourth day beginning day 41 and were sacrificed and autopsied on day 71.

Solubility in water = format: physicochemical; conditions: listed as betulinic acid
human lymphocytes = experiment: Formation of the 50 Kbp DNA fragment in normal cells; format: cell-based; conditions: 2 and 20 μg/ml, time-course
MEL-2 (melanoma) = experiment: Cytotoxicity against cultured human melanoma cells (SRB); format: cell-based
Experimental: (§1) The plates were incubated for three days. […] Dose response studies were performed to generate ED50 values.

[3] = tested on: human melanoma and nonmelanoma cancer cell lines; experiment: Cytotoxicity profile across the panel of human cancer cell lines; conditions: all Table 1 cell lines other than MEL-2
Experimental: In the following Table 1, the extracted betulinic acid and the other pure compounds were tested for cycotoxity against the following cultured human cell lines: A431 (squamous cells), BC-1 (breast), COL-2 (colon), HT-1080 (sarcoma), KB (human oral epidermoid carcinoma), LNCaP (prostate), LU-1 (lung), MEL-2 (melanoma), U373 (glioma) and ZR-75-1 (breast).
Cytotoxicity of the crude extracts and purified compounds was determined in a number of cultured human cancer cell lines. The cells were cultured in appropriate media and under standard conditions. To maintain logarithmic growth, the media were changed 24 hours prior to cytotoxic assays. On the day of the assay, the cells were harvested by trypsinization, counted, diluted in media, and added to 96-well plates containing test compounds dissolved in DMSO; the final DMSO concentration was 0.05%.
The plates were incubated for three days. Following the incubation period, the cells were fixed and stained with sulforhodamine B (SRB) dye. The bound dye was liberated with Tris base, and the OD515 was measured on an ELISA reader. The growth of the betulinic acid-treated cells was determined by the OD515 values, and the growth was compared to the OD515 values of DMSO-treated control cells. Dose response studies were performed to generate ED50 values.
The biological evaluation of the derivatives focused on the activity against human melanoma cell lines. In particular, the following betulinic acid derivatives were prepared and tested for cytotoxicity profile against human melanoma cell lines and against a number of selected nonmelanoma cell lines.

MEL-8 melanoma cell line = experiment: Cytotoxicity of betulinic acid derivatives; format: cell-based, human; conditions: Tables 2-6
Experimental: as §1

MEL-6 melanoma cell line = experiment: Cytotoxicity of betulinic acid derivatives; format: cell-based, human; conditions: Tables 2-6
Experimental: as §1

LOX melanoma cell line = experiment: Cytotoxicity of betulinic acid derivatives; format: cell-based, human; conditions: Tables 2-6
Experimental: as §1

[4] = tested on: MALE-3M melanoma cell line; experiment: Cytotoxicity of betulinic acid derivatives; format: cell-based, human; conditions: Tables 2-6
Experimental: as §1

C=C(C)[C@@H]1CC[C@]2(C(=O)O)CC[C@]3(C)[C@H](CC[C@@H]4[C@@]5(C)CC[C@H](O)C(C)(C)[C@@H]5CC[C@]43C)[C@@H]12 [Compound 10, 3β-hydroxy-lup-20(29)-ene-28-oic acid]
antitumor activity, L1210 [1]: inactive
tumor development, MEL-2, treatment from the day following cell injection (FIG. 2) ([2]; 250 mg/kg/dose IP betulinic acid/PVP every third day, six doses, p=0.0001): significantly inhibited tumor development
inhibition of tumor growth, nonestablished MEL-2 tumors (FIG. 1) ([2]; 50, 250, 500 mg/kg/dose IP as betulinic acid/PVP, every fourth day, six doses from day 1, p 0.001 each dose versus control): effective inhibition of tumor growth; also recorded: greater inhibition of tumor growth at the highest dose
activity against MEL-1 tumors (FIGS. 4 and 5) (UISO MEL-1 cells): showed activity against MEL-1 cells
solubility in water (Solubility in water): poor solubility in water; also recorded: low water solubility
formation of the 50 Kbp fragment in human lymphocytes (human lymphocytes): did not demonstrate formation of the 50 Kbp fragment
IC50 (MEL-2 (melanoma); Homo sapiens, MEL2, 72 h, three days incubation, SRB, Table 1 and text, read-out: ED50 MEL-2): ~2 mg/L (≈ 4.38 µM)
ED50 (Std. Dev.) MEL-2 (MEL-2 (melanoma); derivatives, Tables 2-6): 1.2 (0.1) μg/mL
ED50 MEL-2 (MEL-2 (melanoma); three days incubation, SRB, Table 1 and text, listed as Betulinic acid): 2.0 mg/L (≈ 4.38 µM)
ED50, other cancer cell lines tested [3]: greater than 20 μg/ml
ED50 (Std. Dev.) MEL-8 (MEL-8 melanoma cell line): 1.0 (0.3) μg/mL
ED50 (Std. Dev.) MEL-6 (MEL-6 melanoma cell line): 13.2 (1.5) μg/mL
ED50 (Std. Dev.) LOX (LOX melanoma cell line): >20 mg/L
ED50 (Std. Dev.) MALE-3M [4]: 17.6 (0.5) μg/mL
